From patent US20220323444A1, “Methods of Treating Advanced Prostate Cancer” (The Medical College of Wisconsin, Inc., priority 2019, published 2022)
pIC50: −log10 of the molar value.

Legend:
[1] = system: FL-AR, AR-V7 and AR-V9 mRNA and AR protein levels in PC cells; experiment: AR mRNA (qRT-PCR) and AR / pYStat5 protein (immunoblot) in PC cells treated with Jak2 inhibitors; assay type: cell-based; settings: for FL and AR-V AR mRNA and protein levels: CWR22Rv1 CRPC cell line, FIGS. 6A-6B
Protocol: Jak2 was inhibited for 3 days by Jak2 inhibitors AZD1480, gandotinib, pacritinib, baricitinib or fedratinib at indicated concentrations followed by RNA extraction and quantification of FL-AR, AR-V7 and AR-V9 mRNA levels by qRT-PCR.
Immunoblot analysis of AR expression in PC cells treated with increasing concentrations of Jak2 inhibitors AZD1480, gandotinib, pacritinib or baricitinib for 72 h.
(§1) We tested whether Stat5 regulation of AR mRNA and protein levels provides an opportunity to control AR levels pharmacologically by inhibition of Jak2 signaling. […] Finally, to evaluate the effect of PAC and FED on PC cell viability, CWR22Rv1 cells were treated with increasing concentrations of PAC or FED for 3 days.

CWR22Rv1 PC cells = experiment: Death / viability of CWR22Rv1 PC cells treated with Jak2 inhibitors; assay type: cell-based; settings: for pIC50: 72 h, CWR22Rv1, at 3 days, read-out: IC50, induction of death of CWR22Rv1 PC cells
Protocol: as §1

[2] = system: androgen-responsive PC cell viability; experiment: PC cell viability time-course versus androgen withdrawal (crystal violet staining and cell counting); assay type: cell-based
Excerpt: Crystal violet staining and cell counting were used to compare PC viability over a time-course of 2-10 days between cells treated with ADT and control (+ADT), cells treated with PAC and control (+DMSO), cells treated with FED and control (+DMSO), cells treated with Jak2 knockdown (shJak2) and control (shCtrl), and cells treated with Stat5 knockdown (shStat5) and control (shCtrl).
Next, we compared the effect of androgen deprivation therapy (ADT) carried out by androgen withdrawal, which is the standard therapy used to treat advanced prostate, to the effect of PAC and FED on androgen-responsive PC cell viability over a time-course of 2-10 days using crystal violet staining and cell counting. Based on this analysis, ADT decreased cell viability by 30% compared to control (+DHT), PAC decreased cell viability by 82% after 4 days of treatment and by 96% after 6 days of treatment compared to the control (+DMSO), FED decreased cell viability by 87% after 4 days of treatment and by 98% after 6 days of treatment compared to control (+DMSO), Jak2 knockdown (shJak2) decreased cell viability by 92% after 4 days of lentivirus infection and by 95% after 6 days of lentivirus infection compared to control (shCtrl), and Stat5 knockdown (shStat5) decreased cell viability by 96% after 4 days of lentivirus infection and by 98% after 6 days of lentivirus infection compared to control (shCtrl) (FIG. 25).

[3] = system: AR protein levels in CWR22PC cells; experiment: Time-course of AR protein levels in CWR22PC cells; assay type: cell-based, human; settings: timepoints 12-72 h
[4] = system: CWR22PC PC cells that survive treatment with ENZ; experiment: Viability of CWR22PC cells surviving ENZ treatment; assay type: cell-based, human; settings: ENZ 5 days, then 300 nM for 4 days
Protocol: The PC cells were treated with ENZ (or vehicle) for 5 days, and were then treated with ENZ, vehicle, PAC, or FED for 4 days.
The effect of PAC and FED in blocking the growth of PC cells that survive treatment with the anti-androgen enzalutamide (ENZ) was tested in CWR22PC PC cells. The PC cells were treated in culture with ENZ (or vehicle) for 5 days, and were then treated with ENZ (40 μM), vehicle, PAC (300, 600 or 1200 nM), or FED (300, 600 or 1200 nM) for 4 days. […] Thus, PAC and FED can be used to reduce ENZ resistant PC cell growth.

[5] = system: AR mRNA and protein in PC cells that survive ENZ treatment; experiment: AR expression in CWR22PC cells surviving ENZ treatment; assay type: cell-based, human; settings: ENZ 5 days, then PAC or FED for 4 days
[6] = system: AR-FL, AR-V7 and AR-V9 expression and Stat5 phosphorylation in PC cell lines; experiment: Clinical grade versus research grade pacritinib: Stat5 phosphorylation and AR expression in PC cell lines; assay type: cell-based
Protocol: Control cells were treated with […] (ShCtrl).
The ability of clinical grade pacritinib (CTI Biopharma) to inhibit Stat5 phosphorylation and suppress AR expression in prostate cancer cells in vitro was compared to that of research grade pacritinib (MedChem Express (MCE)) and to cells in which Jak2 was knocked down using lentivirus expressing Jak2-shRNA (shJak2). […] Thus, clinical grade pacritinib induces the same effects as research grade pacrtinib, suppressing AR levels and reducing PC cell viability.

[7] = system: AR-FL, AR-V7 and AR-V9 mRNA expression; experiment: Low concentrations of FED and PAC on AR mRNA expression; assay type: cell-based; settings: 0-0.6 μM
Protocol: As a preliminary study, we tested whether low contrations of FED and PAC (0, 0.01875, 0.0375, 0.075, 0.15, 0.3, 0.6 μM) reduce mRNA expression of full-length (AR-FL) and variant (AR-V7 and AR-V9) forms of AR.

[8] = system: AR mRNA and protein expression in CWR22PC cells; experiment: PAC and FED on AR expression after Stat5-shRNA in CWR22PC cells; assay type: cell-based, human; settings: lentiviral Stat5-shRNA
Excerpt: We tested whether PAC and FED are able to further reduce AR mRNA and/or protein expression following genetic suppression of AR gene expression via lentiviral expression of Stat5-shRNA in CWR22PC cells.

[9] = system: Stat5 and Jak2 phosphorylation in PC cells; experiment: ENZ-induced Jak2-Stat5 phosphorylation in PC cells (IP and WB); assay type: cell-based; settings: CWR22Pc, LAPC4 and CWR22Pc-ENZ-R cells; AZD1480 800 nM, 12 days
Protocol: CWR22Pc and LAPC4 PC cells were treated with ENZ or vehicle for the indicated periods of time. Levels of active Stat5 were determined by immunoprecipitation (IP) of Stat5 followed by immunoblotting (WB) for pStat5a/b and total Stat5. Whole cell lysates (WCL) were immunoblotted for pStat3, Stat3 and Actin. […] CWR22Pc and LAPC4 cells were transduced with lentiviral AR shRNA (shAR) or lenti-shCtrl for 3 days followed by treatment with ENZ or vehicle for 7 days at the indicated concentrations.
PC cells were cultured with ENZ or Jak2 inhibitor AZD1480 (800 nM) alone or in combination for 12 days. Expression levels of active Stat5 were determined by IP of Stat5 followed by WB for pStat5a/b and total Stat5. WCLs were immunoblotted for pStat3, Stat3 and Actin. […] Jak2 was suppressed by lentiviral Jak2 shRNA vs. shCtrl in PC cells for 3 days followed by ENZ or vehicle for 7 days. Active Stat5, Stat5 and Jak2 levels were evaluated by IP and WB, as depicted. […] PC cells were treated with ENZ or vehicle for 6 h at the indicated concentrations. Control cells were stimulated with prolactin (Prl) (10 nM) for 20 min as control for cytokine-induced Jak2 phosphorylation. […] Alternatively, PC cells were treated with ENZ or vehicle for 12 days or stimulated with Prl for 20 min at the indicated concentrations. Stat5 and Jak2 were IP:ed and WB:ed for pStat5, pJak2, tot Stat5, and total Jak2.
To investigate whether AR is required for ENZ induction of Stat5 signaling, we inhibited AR expression in CWR22Pc and LAPC4 cells by genetic knockdown using lentiviral expression of AR shRNA (FIG. 9C).
To further assess the involvement of Jak2 in ENZ-induced Stat5 activation, Jak2 was genetically knocked down by lentiviral expression of Jak2 shRNA in CWR22Pc and LAPC4 cells for 3 days followed by ENZ treatment for 7 days.

[10] = system: AR mRNA and protein levels in CWR22Pc tumors; experiment: AR levels in CWR22Pc xenograft tumors in nude mice; assay type: in vivo; settings: 40 mg/kg i.p. daily for 40 days
Protocol: FIG. 4A. Pharmacological Stat5 inhibition decreases AR protein and mRNA levels in PC xenograft tumors in nude mice. Nuclear AR and Stat5 levels were detected by immunostaining of paraffin-embedded tissue sections of CWR22Pc tumors from mice treated with IST5-002 (IST5) (40 mg/kg; i.p.) for 40 days. Also, AR mRNA levels were evaluated by q-RT-PCR. FIG. 4B. Pharmacological inhibition of Stat5 by IST5-002 or pacritinib suppress AR mRNA levels in patient-derived PCs cultured ex vivo. Clinical PCs (n=4) obtained from prostatectomies were cultured for 7 days ex vivo in 3D tumor explant cultures in the presence of Stat5 inhibitor IST5-002 (12.5 μM) or PAC (1 μM) vs. vehicle, and AR mRNA levels were analyzed by qRT-PCR.
To evaluate whether Stat5 regulation of AR mRNA and protein levels is evident in an in vivo setting where PC cells were grown as xenograft tumors in mice, CWR22Pc cells (1.5×10^7) were inoculated subcutaneously into flanks of nude mice (one tumor/mouse). After tumors reached approximately 100 mm^3 in size (12 d), mice were treated daily for 40 days by intraperitoneal injection with IST5-002 (40 mg/kg body weight) or vehicle (0.3% hydroxypropyl cellulose/H2O) (5 mice/group). AR mRNA and protein levels were evaluated by q-RT-PCR(47) and by immunohistochemistry, as previously described(18, 45, 46, 48, 49).

[11] = system: FL-AR and AR-V protein levels in CWR22Rv1 cells; experiment: Pilot experiment: FED on AR protein levels in CWR22Rv1 cells (IB); assay type: cell-based; settings: CWR22Rv1, 4 days
Excerpt: Jak2 was inhibited for 4 days by fedratinib (FED) at indicated concentrations followed by quantification of FL-AR, AR-V7 and AR-V9 protein levels by IB.
We conducted a pilot experiment to test the efficacy of FED in suppressing AR levels in PC cells (FIG. 16).

Compound: CCS(=O)(=O)N1CC(CC#N)(n2cc(-c3ncnc4[nH]ccc34)cn2)C1 [baricitinib, 2-[1-Ethylsulfonyl-3-[4-(7H-pyrrolo[2,3-d]pyrimidin-4-yl)pyrazol-1-yl]azetidin-3-yl]acetonitrile]
- FL and AR-V AR mRNA and protein levels [1]: dose-dependent reduction

Compound: C1=C/COCc2cc(ccc2OCCN2CCCC2)Nc2nccc(n2)-c2cccc(c2)COC/1 [pacritinib, (16E)-11-[2-(1-Pyrrolidinyl)ethoxy]-14,19-dioxa-5,7,26-triazatetracyclo[19.3.1.12,6.18,12]heptacosa-1(25),2(26),3,5,8,10,12(27),16,21,23-decaene]
- pIC50 (CWR22Rv1 PC cells): 6.52
- FL and AR-V AR mRNA and protein levels [1]: dose-dependent reduction
- decrease in cell viability compared to control (+DMSO) ([2]; after 4 days of treatment): 82%
- decrease in cell viability compared to control (+DMSO) ([2]; after 6 days of treatment): 96%
- time after treatment at which AR protein levels start to decrease [3]: 48 h
- growth / viability of PC cells surviving ENZ treatment [4]: able to block the growth PC cells surviving ENZ treatment with very high efficacy
- AR expression at mRNA and protein level in PC cells that survive ENZ treatment [5]: reduces expression of AR at both the mRNA and protein level
- efficacy in suppressing AR protein expression relative to research grade pacritinib ([6]; CWR22PC and CWR22Rv1, FIG. 18): has higher efficacy than research grade pacritinib (MCE)
- phosphorylation of Stat5 ([6]; CWR22Pc, LAPC4): decreases phosphorylation of Stat5
- AR expression at the protein level ([6]; CWR22Rv1 and CWR22PC): caused a reduction in AR expression at the protein level
- mRNA expression of AR-FL, AR-V7 and AR-V9 ([6]; CWR22Rv1 and CWR22PC): reduced mRNA expression levels of both full-length (AR-FL) and variant (AR-V7 and AR-V9) forms of AR
- efficacy in suppressing AR mRNA expression relative to research grade pacritinib ([6]; CWR22Rv1 and CWR22PC, FIG. 17): has higher efficacy than research grade pacritinib (MCE)
- mRNA expression of AR-FL, AR-V7 and AR-V9 versus concentration [7]: AR expression levels decrease with increased concentrations
- further reduction of AR mRNA/protein expression after Stat5-shRNA [8]: no further decrease in AR expression levels

Compound: N#CCNC(=O)c1ccc(-c2ccnc(Nc3ccc(N4CCOCC4)cc3)n2)cc1 [momelotinib]
- induction of death of PC cells (CWR22Rv1 PC cells; FIG. 7D, 7E): does not provide the same effect of beneficial induction of cell death
- AR protein levels in PC cells ([1]; 72 h, immunoblot, FIG. 6B): did not result in the suppression of AR protein levels
- AR mRNA levels in PC cells ([1]; 3 days, qRT-PCR, FIG. 6A): does not suppress AR expression in PC cells
- FL and AR-V AR mRNA and protein levels [1]: dose-dependent reduction
- Stat5 phosphorylation ([1]; prostate cancer cells, FIG. 6B): does not inhibit Stat5 phosphorylation

Compound: Cc1cc(Nc2nc(N[C@@H](C)c3ncc(F)cn3)ncc2Cl)n[nH]1 [AZD1480, 5-chloro-2-N-[(1S)-1-(5-fluoropyrimidin-2-yl)ethyl]-4-N-(5-methyl-1H-pyrazol-3-yl)pyrimidine-2,4-diamine]
- FL and AR-V AR mRNA and protein levels [1]: dose-dependent reduction
- ENZ-induced Stat5 phosphorylation [9]: blocked ENZ-induced Stat5 phosphorylation

Compound: Cc1cc(Nc2cc(CN3CCOCC3)c3nc(C)c(Cc4ccc(Cl)cc4F)n3n2)n[nH]1 [gandotinib, 3-(4-Chloro-2-fluorobenzyl)-2-methyl-N-(5-methyl-1H-pyrazol-3-yl)-8-(morpholinomethyl)imidazo[1,2-b]pyridazin-6-amine]
- pIC50 (CWR22Rv1 PC cells): 6.52
- FL and AR-V AR mRNA and protein levels [1]: dose-dependent reduction

Compound: O=P(O)(O)OC[C@H]1O[C@@H](n2cnc3c(NCc4ccccc4)ncnc32)[C@H](O)[C@@H]1O [IST5-002]
- AR mRNA and protein expression in PC tumors in vivo [10]: marked decrease in AR mRNA and protein expression

Compound: Cc1cnc(Nc2ccc(OCCN3CCCC3)cc2)nc1Nc1cccc(S(=O)(=O)NC(C)(C)C)c1 [fedratinib, N-tert-Butyl-3-{5-methyl-2-[4-(2-pyrrolidin-1-yl-ethoxy)-phenylamino]-pyrimidin-4-ylamino}-benzenesulfonamide]
- pIC50 (CWR22Rv1 PC cells): 6.52
- FL and AR-V AR mRNA and protein levels [1]: dose-dependent reduction
- decrease in cell viability compared to control (+DMSO) ([2]; after 4 days of treatment): 87%
- decrease in cell viability compared to control (+DMSO) ([2]; after 6 days of treatment): 98%
- growth / viability of PC cells surviving ENZ treatment [4]: able to block the growth PC cells surviving ENZ treatment with very high efficacy
- AR expression at mRNA and protein level in PC cells that survive ENZ treatment [5]: reduces expression of AR at both the mRNA and protein level
- FL-AR and AR-V protein levels [11]: depletes FL-AR and AR-V protein levels almost entirely
- mRNA expression of AR-FL, AR-V7 and AR-V9 versus concentration [7]: AR expression levels decrease with increased concentrations
- further reduction of AR mRNA/protein expression after Stat5-shRNA [8]: no further decrease in AR expression levels
